Legend:
[1] = tested on: conscious rats; test: Ringer's solution time control during chronic infusion of porcine RLX; type: in vivo, rat; conditions: RLX 4 μg/hour s.c. day 5
Protocol: At least 7 days after the implantation of vascular and bladder catheters, osmotic minipumps containing either porcine RLX (4 μg/hour) or vehicle (Ringer's solution) were implanted in intact, female rats (n=7 and 6 rats, respectively). Renal function and MAP were measured on day 5 of relaxin infusion (three 30-minute urine and midpoint blood collections). Next, an infusion of L-NAME (2 μg/minute, a substrate competitive inhibitor of NO synthase) was administered intravenously (i.v.) by infusion pump (Model 200, KD Scientific, Boston, Mass.). Four 1-hour urine collections with midpoint blood samples were collected for the assessment of GFR, ERPF, and ERVR during the L-NAME administration. Identical procedures were performed on additional animals chronically administered porcine RLX (n=5) or vehicle (n=5), except that ANG II (3 ng/minute) was infused rather than L-NAME. Finally, another four, age-matched control rats were administered Ringer's solution instead of either L-NAME or ANG II on day 5 of porcine RLX infusion.
Another group of rats chronically treated with porcine RLX was administered Ringer's solution instead of L-NAME or ANG II, and thus served as time controls. Neither MAP nor any of the renal parameters were consistently altered over the 6 hours or so of vehicle infusion, as shown in Table 3. Values are provided as mean±SEM. Relaxin, RLX. n=4 rats. Ringer's solution was infused at the same flow rate as L-NAME (Table 1) or ANG II (Table 2), 12.5 μl/min. RLX was infused at 4 μg/hour by osmotic minipump s.c.

[2] = tested on: bFGF protein expression in human cardiac cells; test: Immunocytochemistry of human cardiac cell cultures; type: cell-based; conditions: 10 and 100 ng/ml for 24 hours
Protocol: Human cardiac cell cultures untreated or treated for 24 hr with 1, 10, and 100 ng/ml of relaxin were analyzed for VEGF and bFGF protein expression by immunocytochemistry. Human cardiac cells were seeded in two chamber slides at 150,000 cells per chamber 24 hours prior to treatment with relaxin. Cells were incubated without or with 10 or 100 ng/ml relaxin for 24 hours. Cells were washed with PBS and fixed with sequential treatment of 4% paraformaldehyde for 10 minutes, ice-cold acetone for 1 minute and ice-cold methanol for 1 minute before air-drying. Slides were then processed as outlined for rat heart sections with the additional use of monoclonal antibodies against vimentin or desmin (Santa Cruz Biotechnology). Cells being analyzed for bFGF expression were stained using the protocol outlined by Vector Laboratories “Vectastain Elite ABC” kit (Vector Labs.), the only deviation from the standard protocol being a 1 hour instead of a 30 minutes primary antibody incubation step. Untreated cells stained diffusely and uniformly for bFGF. Nearly 100% of all cells stained more intensely for bFGF expression following treatment with 10 and 100 ng/ml of relaxin for 24 hours.

[3] = tested on: endothelial cells; test: Binding of 32P-labelled relaxin to endothelial cells
[4] = tested on: ovariectomized or sham ovariectomized rats; test: Chronic infusion of rhRLX on renal function in ovariectomized or sham ovariectomized rats; type: in vivo, rat; conditions: day 5 of infusion 4 μg/hour; comparable in ovariectomized and sham ovariectomized rats
Text: The details of the surgical procedures have been previously described. See, e.g., Conrad (1984) Kidney Int. 26:24-29; and Danielson and Conrad (1995) J. Clin. Invest. 96:482-490. […] The bladder catheter, a silastic-covered stainless steel cannula, was sewn into the urinary bladder with a purse-string suture and exteriorized through the ventral abdominal wall. This catheter was then plugged allowing the animal to urinate through the urethra while in her home cage. In the ovariectomized and sham ovariectomized animals, the ovaries were first ligated and then excised, or briefly manipulated, respectively, via a small incision made in the lateral abdominal wall immediately after the insertion of vascular and bladder catheters. All surgeries were conducted using aseptic technique. At least a 7-day recovery period was allowed before experimentation.
Six female rats each were subjected either to ovariectomy or sham ovariectomy immediately after the implantation of vascular and bladder catheters. Seven days later, renal function and MAP were assessed before the insertion of osmotic minipumps containing rhRLX. On day 5 of the relaxin infusion (4 μg/hour), renal function and MAP were again determined.

[5] = tested on: db/db mice; test: Full thickness wound healing in db/db mice; type: in vivo, mouse
Protocol: To determine whether rhRlx would improve healing in this model of impaired healing, standardized full thickness (1.5 cm×1.5 cm) wounds were made on the back of db/db mice (Jackson Laboratories, Bar Harbor, Me.). Mice were treated continuously for 21 days with rhRlx via a subcutaneously implanted Alzet pump at a dose of either 0.1 mg/kg/day or 0.2 mg/kg/day. Wound areas were measured in the course of the study. Healing is presented as wound area on day 14 relative to the original size of the wound on day 0 and is calculated as: % of original wound area=[Area on day 14/area on day 0]×100. […] Wound closure was expressed as “% of original wound area.” There were 8-20 animals per group. Wound closure was 91.4% in control group vs. 64% in the relaxin-treated group (p<0.05 by Student-Newman-Kuels test). The differences in the extent of wound healing were small among vehicle control and low dose of rhRlx treatment as well as PDGF (5 μg/wound/day for 5 days) treated mice.
At day 21-post surgery, the wounds were also excised and fixed in formalin prior to paraffin embedding. Sections from the middle of the wound were stained with Masson's trichrome and evaluated by two investigators. […] Inflammatory cell accumulation was present at the wound edges.
Neovascularization is a key component of granulation tissue formation. New blood vessel formation is stimulated by a variety of growth factors including bFGF, and VEGF. […] Immunohistochemical staining of the midsection of full thickness wounds using polyclonal antibody to von Willebrand factor VIII-related antigen was used to identify new blood vessels in the wounds.

[6] = Baseline before Ringer's solution
[7] = Ringer's solution 12.5 μl/min, 60 min
[8] = Ringer's solution 12.5 μl/min, 120 min
[9] = Ringer's solution 12.5 μl/min, 180 min
[10] = Ringer's solution 12.5 μl/min, 240 min

## Porcine RLX: lyophilized, purified porcine relaxin (Sherwood and O'Byrne 1974), dissolved in Ringer's solution
[1]; [6]
  ERPF: 12,927
  ERVR: 5.93
  GFR: 2997
  MAP: 119
[1]; [7]
  ERPF: 12,630
  ERVR: 6.19
  GFR: 3008
  MAP: 123
[1]; [8]
  ERPF: 12,347
  ERVR: 6.40
  GFR: 3086
  MAP: 121
[1]; [9]
  ERPF: 12,353
  ERVR: 6.52
  GFR: 3077
  MAP: 122
[1]; [10]
  ERPF: 12,090
  ERVR: 6.53
  GFR: 3223
  MAP: 121

## rhRLX: recombinant human relaxin, identical in amino acid sequence to the product of the human H2 gene; A chain of 24, B chain of 29 amino acids
[2]
  cells stained more intensely for bFGF expression: ~100%
[3]
  binding of 32P-labelled relaxin to endothelial cells: could not be detected
[4]
  effect on ERPF: profound rise
  effect on ERVR: fall
  effect on GFR: profound rise
[5]; 0.2 mg/kg/day, day 14
  Wound closure, % of original wound area: 64%
[5]; compared to wounds of vehicle treated animals
  staining for von Willebrand factor VIII-related antigen (new blood vessels): stronger positive staining
[5]; day 21-post surgery
  wound histology, Masson's trichrome: thick, cellular and vascular granulation tissue
[5]; low dose of rhRlx (0.1 mg/kg/day)
  differences in the extent of wound healing vs vehicle control: small

Source: patent US6723702B2, “Use of relaxin treat diseases related to vasoconstriction” (RAS Medical, Inc., priority 2000, dated 2004)
